Test results as given in US9464093B2, “Substituted imidazo[4',5':4,5]cyclopenta[1,2-e]pyrrolo[1,2-a]pyrazines and oxazolo[4',5':4,5]cyclopenta[1,2-e]pyrrolo[1,2-a]pyrazines for treating brain cancer” (Mayo Foundation for Medical Education and Research, priority 2012, dated 2016).
Read-outs that look alike come from different tables or passages of the source.

Assays:
[1] = tested on: DU145 prostate cancer cells; assay: Cytotoxicity, MTT method, DU145; details: read-out: Cytotoxicity (IC50, μM) DU145
Experimental: The cell suspension in the culture medium was plated into each well of 96-well plates (10,000 cells/well/100 μL). After 24 h, testing compounds were added, and then the plates were incubated for an additional 24 h in a humidified atmosphere of 5% CO2 at 37° C. […] The IC50 value was determined by linear interpolation from the growth inhibition curve.

[2] = tested on: MB-468 (triple-negative breast cancer cells); assay: Cytotoxicity, cell count, MB-468 (Example 4); details: read-out: Cytotoxicity (IC50, μM) MB-468
Experimental: (§1) Raji cells and MB-468 cells were purchased from American Tissue Culture (Manassas, Va.). […] Cells were harvested and counted on the third day in a Coulter Particle Counter (Beckman-Coulter Corp.: Brea, Calif.). IC50 values were calculated using GraphPad Prism 5 (GraphPad Software Inc., La Jolla, Calif.).

[3] = tested on: Raji B cells (Burkitt's lymphoma cells); assay: Cytotoxicity, cell count, Raji (Example 4); details: read-out: Cytotoxicity (IC50, μM) Raji
Experimental: as §1

Compound	IC50 ([1]; Homo sapiens, DU-145, 24 h) [µM]	IC50 [2] [µM]	IC50 ([3]; Homo sapiens, Raji) [µM]	other results
CN1C(=O)N[C@H]2[C@@H]3NC(=O)c4ccc(-c5ccc(N)cc5)n4[C@@H]3C[C@]21O [APAA, p-aminophenylagelastatin A]	> 10	–	–	–
CN1C(=O)N[C@H]2[C@@H]3NC(=O)c4ccc(C5CC5)n4[C@@H]3C[C@]21O [CPAA, cyclopropylagelastatin A]	5	1	0.4	–
CCN1C(=O)N[C@H]2[C@@H]3NC(=O)c4cccn4[C@@H]3C[C@]21O [DeBEAA, debromoethylagelastatin A]	> 10	–	–	–
CCN1C(=O)N[C@H]2[C@@H]3NC(=O)c4ccc(Br)n4[C@@H]3C[C@]21O [EAA, ethylagelastatin A]	> 10	–	–	–
COc1ccc(CN2C(=O)N[C@H]3[C@@H]4NC(=O)c5ccc(Br)n5[C@@H]4C[C@]32O)cc1 [N-PMBAA, N-p-methoxybenzyl agelastatin A]	> 10	–	–	–
CN1C(=O)N[C@H]2[C@@H]3NC(=O)c4ccc(-c5ccccc5)n4[C@@H]3C[C@]21O [PAA, phenylagelastatin A]	6	1.5	3.8	–
CNC(=O)N[C@H]1[C@@H]2NC(=O)c3ccc(Br)n3[C@@H]2C[C@H]1O [UAA, ureaagelastaitin A]	–	> 10	> 10	–
CN1C(=O)N[C@@H]2[C@H]3NC(=O)c4ccc(Br)n4[C@H]3C[C@@]21O [ent-AA]	–	–	–	IC50 ([1]; MTT, 24 h incubation): > 10 µM
debromoagelastatin A [DeBAA]	–	–	–	IC50 ([1]; MTT, 24 h incubation): > 10 µM; IC50 ([2]; cells counted on the third day): 3 µM; IC50 ([3]; cells counted on the third day): 3.16 µM
